According to ChEMBL document CHEMBL4765232 (J Med Chem, 2016):

Experiments:
[1] = target: T1, Histone-lysine N-methyltransferase EZH2 (Homo sapiens, UniProt Q15910); test: Inhibition of wild-type EZH2 in PRC2 complex (unknown origin) using RKQLATKAARK(Me3)SAPATGGVKKP-NH2 peptide substrate preincubated for 30 mins followed by addition of [3H]-SAM measured after 2 hrs by Topcount scintillation proximity assay
[2] = target: T1, Histone-lysine N-methyltransferase EZH2; test: Inhibition of EZH2 in human HeLa cells assessed as inhibition of trimethylation of H3K27 after 72 hrs by AlphaLISA assay; type: cell-based
[3] = Half life in Balb/c mouse plasma at 1 mg/kg, iv formulated with 5:25:70 DMA/PEG400/20% SBECD; type: ADME, organism-based
[4] = Unbound Cmax in Balb/c mouse at 100 mg/kg, po formulated in 0.5 % methyl cellulose maintained at pH 3; type: ADME, organism-based; details: in vivo, pH 3, 100 mg/kg
CYP2C8 = target: T2, CYP2C8 (Homo sapiens, UniProt P10632); test: Inhibition of CYP2C8 (unknown origin) at 10 uM relative to control; type: ADME
T2 sequence (P10632 whole entry): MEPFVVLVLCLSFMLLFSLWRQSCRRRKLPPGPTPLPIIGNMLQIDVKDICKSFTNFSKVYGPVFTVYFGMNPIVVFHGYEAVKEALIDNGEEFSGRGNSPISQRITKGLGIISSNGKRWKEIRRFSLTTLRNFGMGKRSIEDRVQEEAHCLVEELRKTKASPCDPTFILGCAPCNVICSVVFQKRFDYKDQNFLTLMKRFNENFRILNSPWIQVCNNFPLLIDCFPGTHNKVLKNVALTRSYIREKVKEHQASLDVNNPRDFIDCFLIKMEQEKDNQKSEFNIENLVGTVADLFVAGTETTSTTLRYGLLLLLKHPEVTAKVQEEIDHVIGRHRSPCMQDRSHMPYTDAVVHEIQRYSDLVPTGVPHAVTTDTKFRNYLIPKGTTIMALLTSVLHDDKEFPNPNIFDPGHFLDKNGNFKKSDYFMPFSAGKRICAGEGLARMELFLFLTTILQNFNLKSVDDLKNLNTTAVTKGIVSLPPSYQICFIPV

[5] = AUC (0 to infinity) in Balb/c mouse at 100 mg/kg, po formulated in 0.5 % methyl cellulose maintained at pH 3; type: ADME, organism-based; parameters: time infinity, route oral, dose 100 mg/kg; details: in vivo, pH 3, 100 mg/kg
[6] = Volume of distribution at steady in Balb/c mouse at 1 mg/kg, iv formulated with 5:25:70 DMA/PEG400/20% SBECD; type: ADME, organism-based; details: in vivo, read-out: Vdss
CYP3A4 = CYP3A4 (Homo sapiens, UniProt P08684); test: Inhibition of CYP3A4 (unknown origin) at 10 uM relative to control; type: ADME
Sequence of CYP3A4 (P08684 whole entry): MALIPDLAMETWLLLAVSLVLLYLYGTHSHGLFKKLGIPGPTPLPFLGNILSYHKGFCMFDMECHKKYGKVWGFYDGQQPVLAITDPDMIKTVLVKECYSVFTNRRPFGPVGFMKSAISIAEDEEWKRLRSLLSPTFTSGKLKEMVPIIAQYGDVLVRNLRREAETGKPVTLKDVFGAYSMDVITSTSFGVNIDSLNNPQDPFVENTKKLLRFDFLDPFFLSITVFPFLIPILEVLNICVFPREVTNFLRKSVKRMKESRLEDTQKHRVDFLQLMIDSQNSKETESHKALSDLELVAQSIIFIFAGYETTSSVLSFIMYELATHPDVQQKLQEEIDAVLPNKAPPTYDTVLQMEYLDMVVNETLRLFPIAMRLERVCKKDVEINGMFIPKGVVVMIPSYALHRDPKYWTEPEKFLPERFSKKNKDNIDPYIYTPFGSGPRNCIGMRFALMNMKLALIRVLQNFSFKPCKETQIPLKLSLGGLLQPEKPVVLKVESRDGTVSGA

[7] = Unbound clearance in Balb/c mouse at 1 mg/kg, iv formulated with 5:25:70 DMA/PEG400/20% SBECD; type: ADME, organism-based; details: in vivo
[8] = Fraction unbound in mouse plasma; type: ADME, cell-free
[9] = Cmax in Balb/c mouse at 100 mg/kg, po formulated in 0.5 % methyl cellulose maintained at pH 3; type: ADME, organism-based; parameters: route oral, dose 100 mg/kg; details: in vivo, pH 3, 100 mg/kg
[10] = Oral bioavailability in Balb/c mouse at 100 mg/kg formulated in 0.5 % methyl cellulose maintained at pH 3; type: ADME, organism-based; details: in vivo, pH 3, 100 mg/kg
[11] = Protein binding in dog plasma assessed as bound fraction; type: ADME, cell-free, Canis lupus familiaris; details: read-out: PPB (converted)
CYP2D6 = CYP2D6 (Homo sapiens, UniProt P10635); test: Inhibition of CYP2D6 (unknown origin) at 10 uM relative to control; type: ADME
Sequence of CYP2D6 (P10635 whole entry): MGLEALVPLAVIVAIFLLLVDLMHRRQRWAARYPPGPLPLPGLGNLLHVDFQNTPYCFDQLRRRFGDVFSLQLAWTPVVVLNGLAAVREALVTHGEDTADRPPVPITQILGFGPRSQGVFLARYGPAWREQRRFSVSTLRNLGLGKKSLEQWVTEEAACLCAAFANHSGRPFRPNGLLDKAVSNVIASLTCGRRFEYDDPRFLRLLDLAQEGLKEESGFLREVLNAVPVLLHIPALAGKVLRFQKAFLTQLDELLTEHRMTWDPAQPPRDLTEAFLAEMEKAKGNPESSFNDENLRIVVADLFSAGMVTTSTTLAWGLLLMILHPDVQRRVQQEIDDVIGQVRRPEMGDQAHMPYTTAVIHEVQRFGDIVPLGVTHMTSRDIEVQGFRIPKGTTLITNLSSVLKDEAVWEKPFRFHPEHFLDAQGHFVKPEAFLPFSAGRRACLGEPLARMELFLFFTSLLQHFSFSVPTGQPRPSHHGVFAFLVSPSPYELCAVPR

[12] = Clearance in Balb/c mouse at 1 mg/kg, iv formulated with 5:25:70 DMA/PEG400/20% SBECD; type: ADME, organism-based; details: in vivo
[13] = Protein binding in mouse plasma assessed as bound fraction; type: ADME, cell-free; details: for fraction unbound: read-out: PPB (converted)
[14] = Tmax in Balb/c mouse at 100 mg/kg, po formulated in 0.5 % methyl cellulose maintained at pH 3; type: ADME, organism-based; details: in vivo, pH 3, 100 mg/kg
[15] = Protein binding in human plasma assessed as bound fraction; type: ADME, cell-free; details: read-out: PPB (converted)
[16] = Intrinsic clearance in mouse liver microsomes assessed per mg protein; type: ADME, Microsome
CYP2C9 = CYP2C9 (Homo sapiens, UniProt P11712); test: Inhibition of CYP2C9 (unknown origin) at 10 uM relative to control; type: ADME
Sequence of CYP2C9 (P11712 whole entry): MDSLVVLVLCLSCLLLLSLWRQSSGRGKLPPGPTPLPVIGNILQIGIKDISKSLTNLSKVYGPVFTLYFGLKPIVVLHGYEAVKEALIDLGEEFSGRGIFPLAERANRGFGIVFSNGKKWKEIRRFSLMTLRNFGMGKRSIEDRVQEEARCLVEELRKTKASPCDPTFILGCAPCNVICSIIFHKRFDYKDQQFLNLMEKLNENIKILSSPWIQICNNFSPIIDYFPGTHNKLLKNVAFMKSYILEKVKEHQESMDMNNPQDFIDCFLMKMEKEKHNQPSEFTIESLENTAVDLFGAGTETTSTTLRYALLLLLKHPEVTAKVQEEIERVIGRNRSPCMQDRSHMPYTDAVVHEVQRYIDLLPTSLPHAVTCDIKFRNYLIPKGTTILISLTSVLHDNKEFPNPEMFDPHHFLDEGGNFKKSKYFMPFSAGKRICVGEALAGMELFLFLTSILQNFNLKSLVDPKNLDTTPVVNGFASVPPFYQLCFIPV

[17] = Unbound AUC in Balb/c mouse at 100 mg/kg, po formulated in 0.5 % methyl cellulose maintained at pH 3; type: ADME, organism-based; details: in vivo, pH 3, 100 mg/kg
CYP1A2 = target: T3, CYP1A2 (Homo sapiens, UniProt P05177); test: Inhibition of CYP1A2 (unknown origin) at 10 uM relative to control; type: ADME
T3 sequence (P05177 whole entry): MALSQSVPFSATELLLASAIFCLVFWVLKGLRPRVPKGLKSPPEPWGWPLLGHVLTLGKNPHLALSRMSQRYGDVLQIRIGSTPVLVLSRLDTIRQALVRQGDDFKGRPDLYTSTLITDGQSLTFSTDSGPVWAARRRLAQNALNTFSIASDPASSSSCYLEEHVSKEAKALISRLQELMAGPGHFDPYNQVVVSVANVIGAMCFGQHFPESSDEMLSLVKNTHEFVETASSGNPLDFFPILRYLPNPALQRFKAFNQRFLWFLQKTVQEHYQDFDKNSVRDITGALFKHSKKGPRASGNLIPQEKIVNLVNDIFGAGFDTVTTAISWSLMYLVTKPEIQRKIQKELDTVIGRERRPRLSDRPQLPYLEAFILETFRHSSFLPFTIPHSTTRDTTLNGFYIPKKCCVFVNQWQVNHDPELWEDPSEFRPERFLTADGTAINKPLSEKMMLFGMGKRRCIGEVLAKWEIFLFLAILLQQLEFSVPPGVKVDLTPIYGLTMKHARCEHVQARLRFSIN

[18] = Intrinsic clearance in rat liver microsomes assessed per mg protein; type: ADME, Microsome
[19] = Protein binding in rat plasma assessed as bound fraction; type: ADME, cell-free; details: read-out: PPB (converted)
[20] = Clearance in Balb/c mouse at 1 mg/kg, iv formulated with 5:25:70 DMA/PEG400/20% SBECD relative to liver blood flow; type: ADME, organism-based; details: in vivo
[21] = Intrinsic clearance in dog liver microsomes assessed per mg protein; type: ADME, Canis lupus familiaris, Microsome
[22] = Intrinsic clearance in human liver microsomes assessed per mg protein; type: ADME, Microsome

T1 sequence (Q15910 whole entry): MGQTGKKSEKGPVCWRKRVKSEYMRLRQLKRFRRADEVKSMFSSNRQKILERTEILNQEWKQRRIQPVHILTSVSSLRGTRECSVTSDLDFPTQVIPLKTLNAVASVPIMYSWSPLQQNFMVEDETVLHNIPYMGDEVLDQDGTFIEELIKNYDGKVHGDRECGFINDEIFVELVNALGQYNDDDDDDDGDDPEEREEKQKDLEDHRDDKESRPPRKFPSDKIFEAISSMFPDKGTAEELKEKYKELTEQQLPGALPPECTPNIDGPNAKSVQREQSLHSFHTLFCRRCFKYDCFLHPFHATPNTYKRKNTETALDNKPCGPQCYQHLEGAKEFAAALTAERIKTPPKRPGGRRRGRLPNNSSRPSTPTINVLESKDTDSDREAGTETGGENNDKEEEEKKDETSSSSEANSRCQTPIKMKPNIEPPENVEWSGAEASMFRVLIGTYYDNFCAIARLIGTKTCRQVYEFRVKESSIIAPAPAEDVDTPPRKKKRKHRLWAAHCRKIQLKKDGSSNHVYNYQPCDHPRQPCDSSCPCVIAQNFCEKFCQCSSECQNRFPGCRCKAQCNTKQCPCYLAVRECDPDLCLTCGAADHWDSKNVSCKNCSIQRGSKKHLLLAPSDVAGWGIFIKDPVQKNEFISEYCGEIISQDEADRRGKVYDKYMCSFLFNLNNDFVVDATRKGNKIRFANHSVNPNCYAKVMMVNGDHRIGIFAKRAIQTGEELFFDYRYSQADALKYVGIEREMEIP

COc1cc(C)[nH]c(=O)c1CNC(=O)c1c(C)n([C@H](C)C2CCN(C3COC3)CC2)c2ccccc12
IC50 [1]: < 1 nM | EC50 [2]: 150 nM

CCOC(=O)CN1CCC([C@@H](C)n2c(C)c(C(=O)NCc3c(OC)cc(C)[nH]c3=O)c3ccccc32)CC1
IC50 [1]: < 1 nM | EC50 [2]: 260 nM

COc1cc(C)[nH]c(=O)c1CNC(=O)c1c(C)n([C@H](C)C2CCN(C(=O)C(C)C)CC2)c2ccccc12
IC50 [1]: 2.5 nM | EC50 [2]: 420 nM

COc1cc(C)[nH]c(=O)c1CNC(=O)c1c(C)n([C@H](C)C2CCN(C(=O)OC(C)C)CC2)c2ccccc12
IC50 [1]: < 1 nM | EC50 [2]: 110 nM

COc1cc(C)[nH]c(=O)c1CNC(=O)c1c(C)n([C@H](C)C2CCN(CC(F)F)CC2)c2ccccc12
half-life [3]: 24.1 min | fCmax [4]: 1.15 µM | inhibition at 10 µM (CYP2C8): 18.9% | AUC [5]: 42.01 µM·h | Vd [6]: 1.1 L/kg | inhibition at 10 µM (CYP3A4): 25.2% | CL free [7]: 3372 mL/min/kg | Fu [8]: 0.022% | Cmax [9]: 52.1 µM | F [10]: 91.6% | fraction unbound [11]: 0.357 | inhibition at 10 µM (CYP2D6): 26.1% | IC50 [1]: 1.8 nM | clearance [12]: 74.2 mL/min/kg | PPB [13]: 97.8% | Tmax [14]: 15 min | fraction unbound [15]: 0.167 | CLH [16]: 131 µL/min | inhibition at 10 µM (CYP2C9): 25.4% | fAUC [17]: 0.924 µM·h | inhibition at 10 µM (CYP1A2): 28.6% | CLH [18]: 71.3 µL/min | fraction unbound [19]: 0.169 | CL [20]: 82% | CLH [21]: 52.4 µL/min | EC50 [2]: 39 nM

COc1cc(C)[nH]c(=O)c1CNC(=O)c1c(C)n([C@H](C)C2CCNCC2)c2ccccc12
IC50 [1]: 2 nM | EC50 [2]: 1100 nM

COc1cc(C)[nH]c(=O)c1CNC(=O)c1c(C)n([C@H](C)C2CCN(CC(F)(F)C(F)F)CC2)c2ccccc12
IC50 [1]: 1.6 nM | EC50 [2]: 38 nM

COc1cc(C)[nH]c(=O)c1CNC(=O)c1c(C)n([C@H](C)C2CCN(C(=O)N(C)C)CC2)c2ccccc12
IC50 [1]: 3.3 nM | EC50 [2]: 930 nM

COc1cc(C)[nH]c(=O)c1CNC(=O)c1c(C)n([C@H](C)C2CCN(CC(C)(F)F)CC2)c2ccccc12
inhibition at 10 µM (CYP2C8): 50.9% | CLH [22]: 83.8 µL/min | inhibition at 10 µM (CYP3A4): 0% | fraction unbound [11]: 0.064 | inhibition at 10 µM (CYP2D6): 7.7% | IC50 [1]: < 1 nM | fraction unbound [13]: 0.006 | fraction unbound [15]: 0.053 | CLH [16]: 193 µL/min | inhibition at 10 µM (CYP2C9): 5% | inhibition at 10 µM (CYP1A2): 0% | CLH [18]: 86.1 µL/min | fraction unbound [19]: 0.076 | CLH [21]: 68.9 µL/min | EC50 [2]: 20 nM

COc1cc(C)[nH]c(=O)c1CNC(=O)c1c(C)n([C@H](C)C2CCN(C)CC2)c2ccccc12
IC50 [1]: < 1 nM | EC50 [2]: 470 nM

COc1cc(C)[nH]c(=O)c1CNC(=O)c1c(C)n([C@H](C)C2CCN(CCC(F)(F)F)CC2)c2ccccc12
inhibition at 10 µM (CYP2C8): 23.1% | CLH [22]: 35.4 µL/min | inhibition at 10 µM (CYP3A4): 5% | fraction unbound [11]: 0.037 | inhibition at 10 µM (CYP2D6): 17.2% | IC50 [1]: 2.3 nM | fraction unbound [13]: 0.003 | fraction unbound [15]: 0.041 | CLH [16]: 61.3 µL/min | inhibition at 10 µM (CYP2C9): 11.6% | inhibition at 10 µM (CYP1A2): 19.4% | CLH [18]: 25.7 µL/min | fraction unbound [19]: 0.026 | CLH [21]: 35.3 µL/min | EC50 [2]: 290 nM
